{"source": "patent US20100137344A1", "about": "“INDUCTION OF ANALGESIA IN NEUROPATHIC PAIN” (University Court of the University of Edinburgh, priority 2006, published 2010)", "key": {"naïve rats": {"system": "naïve rats", "assay": "Intrathecal application in naïve rats, behavioural reflex testing (PWL, PWT)", "format": "in vivo, rat", "settings": "icilin 10 nmol, (−)-menthol 200 nmol, data not shown", "description": "Thermal sensitivity was assessed by measuring paw withdrawal latency (PWL, s) in response to a noxious thermal stimulus (Hargreaves' thermal stimulator, Linton Instrumentation, Diss, UK) directed to the hindpaw mid-plantar glabrous surface. Mechanical sensitivity was recorded as the paw withdrawal threshold (PWT, mN/mm^2) to calibrated von Frey filaments (Stoelting, Ill., US), as previously described^[39]. Sensitivity to noxious cold was assessed by placing animals in a waterbath with an aluminium floor containing 1 cm deep 4° C. water and counting the time the paw was held suspended over a 20 s period.\nThe following drugs were applied intrathecally in a 50 μl volume of saline-based vehicle at 37° C.: icilin (2.5-200 μM in saline with 0.2% dimethylformamide, DMF), LY 341495 (100 μM in saline), UBP 1112 (200 μM in saline), 2R,4R-APDC ((2R, 4R)-4-aminopyrrolidine-2,4-dicarboxylate), 300 μM in saline), ACPT-III ((1R,3R,4S)-1-aminocyclopentane-1,3,4-tricarboxylic acid), 3 mM in saline), AP-4, ((L-(1)-2-amino-4-phosphonobutyric acid), 3 mM in saline), naloxone (0.5 mM in saline), NMDA (75 μM in saline) and ACPC (1-aminocyclopropanecarboxylic acid, 15 μM in saline) (Tocris Cookson, Bristol, UK), (−)-menthol (1R,2S,5R-(−)-menthol, 4 mM in saline), cinnamaldehyde (1.5 mM in saline) and Ruthenium Red (5 μM in saline) (Sigma-Aldrich Co. Ltd, UK) and allicin (0.5 mM in saline with 0.5% DMF) and diallyl disulphide (DADS, 1 mM in saline with 0.5% DMF) (LKT Laboratories Inc., St Paul, Minn., USA). Drugs were injected into the L5/6 intrathecal space under brief halothane anaesthesia, using a 25-gauge needle microsyringe (BD Biosciences, Oxford, UK), as described previously^[39] in animals that were at peak levels of behavioural sensitisation. Behavioural reflex testing commenced 15 min following injection to allow recovery from anaesthesia^[40,41,42] and continued every 5 min thereafter until readings returned to baseline levels (n=6 in each case). We, and others^[40,41,42] find complete recovery from anaesthetic by 15 minutes. All appropriate controls were carried out to eliminate the possibility of effects due to vehicle or to injection procedure.\nThe TRPM8 channel activators, icilin and (−)-menthol were tested in CCI and naïve animals. The effects of icilin were additionally assessed in animals with CFA-induced inflammation or with lysolecithin-induced demyelination. Icilin was also co-administered with the μ-opioid receptor antagonist naloxone, the Group II metabotropic glutamate receptor (mGluR) antagonist, LY 341495, or the Group III mGluR antagonist, UBP 1112. The effects of these antagonists alone as well as effects of the Group II mGluR agonist, 2R,4R-APDC and the Group III mGluR agonists, ACPT-III and AP-4, were assessed in CCI animals. The TRPA1 channel activator, cinnamaldehyde, alone and with icilin, was tested in CCI animals and in naïve animals. Further TRPA1 channel activators, allicin and diallyl disulphide were assessed in naïve animals. Both icilin and cinnamaldehyde effects in CCI animals were also investigated in the additional presence of Ruthenium Red."}, "[1]": {"system": "saphenous nerve afferents", "assay": "Saphenous nerve afferent recordings after topical application to receptive field", "format": "in vivo, rat", "excerpt": "Antisense and mis-sense oligonucleotides were 22-mers with phosphorothioate bonds at the last two positions at 5′ and 3′ ends (MWG Biotech, Ebersberg, Germany). Antisense extended from base −10 to base +12 relative to the start of the open reading frame for the rat TRPM8 gene: 5′ C*T*CGAAGGACATCTTGCCGT*G*G 3′, where * represents phosphorothioate linkages. Mis-sense was designed with 4 inversions of C/G or A/T as appropriate at residues 3, 11, 14 and 22, preserving overall G/C content. BLAST searches of both oligonucleotides indicated no significant complementarity to any known gene sequence. 14-day or 7-day osmotic minipumps (for CCI experiments or naïve electrophysiology experiments respectively—Alzet Minipump, models 2002, 2001; Charles River, UK) containing oligonucleotides (1 μg/μl in sterile saline) were connected to canulae inserted under the dura of the spinal cord to level L5/6 and produced a predicted infusion rate of 0.5 μl/h. CCI surgery was performed at the same time as minipump implantation. Sensory tests were carried out to assess the time-course of behavioural sensitisation in animals which had also undergone a CCI injury. Icilin was applied topically rather than intrathecally so as to prevent any interference with the infusion canula. Peripheral nerve recordings and tissue harvesting were carried out after an interval of 4-5 days to allow time for protein knockdown.\nPeripheral: Recordings of saphenous (sensory) nerve were made in naïve animals (n=7) to assess the effects of topical icilin on primary afferents. In addition, recordings were carried out on animals which had undergone TRPM8 antisense or mis-sense treatment beginning 4-5 days previously. Rats were anaesthetised (with 0.6 ml 25% urethane/100 g, i.p.) and the saphenous nerve was exposed and dissected from its associated vein and artery. Further dissection under liquid paraffin enabled identification of afferent preparations comprising a small number of fibres. The conduction velocity of single identified afferent fibres was determined using bipolar electrodes and the peripheral stimulus technique^[43]. Following isolation of preparations, icilin (200 μM in water with 0.2% DMF), (−)-menthol (4 mM in 25% ethanol) resiniferatoxin (1 mM in ethanol) or vehicle alone were applied to the hindlimb receptive fields and neuronal responses recorded using the Chart programme (version 3.6). Central: Recordings of spinal dorsal horn neurons were made in CCI animals, as described previously^[39]. Following halothane induction, the jugular vein and trachea were canulated and intravenous anaesthetic delivered: α-chloralose ([…], Fisher) and urethane ([…], Sigma), with small supplementary doses of α-chloralose as required throughout the experiment. Core body temperature was maintained at 37-38° C. by means of a thermostatically controlled heated blanket. The animal was placed in a stereotaxic frame, and the thoracolumbar spinal column was supported using three pairs of swan-necked clamps. A laminectomy was performed at L2-L5, and agar (2% in saline at 37° C.) was delivered over exposed cord to increase mechanical stability. Above the recording region the agar and spinal cord dura were removed and liquid paraffin poured into the pool. Extracellular recordings were made from single multireceptive neurons in laminae I-IV through the centre barrel of a seven-barrelled glass microelectrode filled with 4M NaCl (tip-diameter […], DC resistance 5-8 MΩ). The receptive fields of hair-follicle innervated neurons on the distal hindlimb were identified by an innocuous brush stimulus^[39]. Icilin (200 μM in water with 0.2% DMF) was applied peripherally to the receptive field of individual recorded neurons, and the effect on neuronal response to a rotating brush was recorded and analysed using Spike2 programme (Version 3.2, CED). […]"}, "[2]": {"settings": "antisense-treated animals, topical icilin 200 μM, (−)-menthol 4 mM, resiniferatoxin 1 mM"}, "[3]": {"settings": "mis-sense-treated animals, topical icilin 200 μM, (−)-menthol 4 mM"}, "[4]": {"settings": "mis-sense-treated animals, topical icilin 200 μM, (−)-menthol 4 mM, resiniferatoxin 1 mM"}}, "data": [{"smiles": "CC(C)[C@@H]1CC[C@@H](C)C[C@H]1O", "note": "[(−)-menthol, 1R,2S,5R-(−)-menthol]", "values": [{"measurement": "effect on reflex responses in naïve animals", "setting": "naïve rats", "value": "without effect"}, {"measurement": "activation of afferents", "setting": "[1]; antisense-treated animals, (−)-menthol 4 mM, 28 identified afferents recorded", "value": "no obviously activated afferents"}, {"measurement": "firing frequency after drug", "setting": "[1]; [2]", "value": "4.8±1.9", "unit": "Hz"}, {"measurement": "recorded fibres activated", "setting": "[1]; [3]", "value": 20, "unit": "%"}, {"measurement": "firing frequency after drug", "setting": "[1]; [4]", "value": "38.9±7.6", "unit": "Hz"}, {"measurement": "increase in firing frequency", "setting": "[1]; [4]", "value": "approximately 8 fold"}]}, {"smiles": "O=C1NC(c2cccc([N+](=O)[O-])c2)=CCN1c1ccccc1O", "note": "[icilin, 1-(2′-hydroxyphenyl)-4-(3″-nitrophenyl)-1,2,3,6-tetrahydropyrimidin-2-one]", "values": [{"measurement": "effect on reflex responses in naïve animals", "setting": "naïve rats", "value": "without effect"}, {"measurement": "firing frequency after drug", "setting": "[1]; [2]", "value": "12.7±0.6", "unit": "Hz"}, {"measurement": "increase in firing frequency", "setting": "[1]; antisense-treated animals, topical icilin 200 μM, resiniferatoxin 1 mM", "value": "approximately 2 fold"}, {"measurement": "recorded slowly conducting fibres activated", "setting": "[1]; antisense-treated naïve animals, icilin 200 μM topical, 3 out of 34", "value": 8.8, "unit": "%"}, {"measurement": "recorded fine afferents with significant increase in firing frequency", "setting": "[1]; icilin 200 μM to receptive field, naïve animals, 40 out of 185", "value": 21.6, "unit": "%"}, {"measurement": "effect on large myelinated mechanoreceptors", "setting": "[1]; icilin 200 μM, conduction velocities 6.8-15 ms^−1, n=43", "value": "unaffected"}, {"measurement": "mean time to peak effect", "setting": "[1]; icilin 200 μM, naïve animals", "value": "3.3 ± 0.5", "unit": "min"}, {"measurement": "firing frequency after drug", "setting": "[1]; icilin 200 μM, naïve animals, baseline 4.5±2.5 Hz", "value": 31.6, "unit": "Hz"}, {"measurement": "mean increase in firing frequency", "setting": "[1]; icilin 200 μM, naïve animals, from baseline of 4.5±2.5 Hz", "value": 7, "unit": "fold"}, {"measurement": "recorded fibres activated", "setting": "[1]; [3]", "value": 25, "unit": "%"}, {"measurement": "firing frequency after drug", "setting": "[1]; [4]", "value": "23.1±3.2", "unit": "Hz"}, {"measurement": "increase in firing frequency", "setting": "[1]; [4]", "value": 7, "unit": "fold"}]}]}
